Tests used:
[1] = target: T1, human plasma TTR (Homo sapiens, UniProt P02766); assay: Tetrameric TTR stability by isoelectric focusing (IEF) of plasma TTR, ex vivo; assay type: biochemical; conditions: human plasma incubated with compound; control (vehicle) 0.717
T1 construct: from tissue; host or cells: human plasma
Method: To perform the assay, 30 μL of human plasma are incubated with 5 μL of a 10 mM solution of test compounds and control compounds overnight at 4° C. followed by a 1 hour incubation at room temperature. The preparations are subjected to native PAGE. The gel band containing TTR is then excised and applied to an IEF gel and IEF is carried out in semi-denaturing conditions. Proteins are stained with Coomassie Blue, the gels are scanned and subjected to densitometry. The results are expressed as the ratio of TTR tetramer over the total TTR species present, reflecting TTR stability.
After treatment with the test compounds, TTR was separated by PAGE and the isolated protein was analyzed by IEF.
To perform the assay, 30 μL of human plasma are incubated with 5 μL of a 10 mM solution of test compounds and control compounds overnight at 4° C. followed by a 1 hour incubation at RT. The preparations are subjected to native PAGE and the gel band containing TTR is excised and applied to an IEF gel. IEF is carried out in semi-denaturing conditions (4 M urea), containing 5% (v/v) ampholytes pH 4-6.5 (GE Healthcare), at 1200 V for 6 hours. Proteins are stained with Coomassie Blue, the gels are scanned and subjected to densitometry using the ImageQuant program. The results are expressed as the ratio of TTR tetramer over total TTR.

[2] = target: T2, albumin (ALB) (Homo sapiens, UniProt P02768); assay: Thyroxine (T4) binding competition by gel electrophoresis in plasma, albumin band; conditions: [125I]T4, in presence of compound
T2 construct: from tissue; host or cells: human plasma
Method: (§1) Briefly, upon incubation of human plasma in the presence of the test compounds and radio-labeled T4 ([125I]T4), the samples are subjected to native PAGE. After electrophoresis, the gels are dried, subjected to phosphor imaging, and the intensity of the protein bands is then compared. […] The intensity of the bands decreases, as compared to the control samples (absence of compound), if the compound binds to the protein(s) competing with T4.
(§2) FIG. 24 presents the results of these experiments, where the bands in the gel correspond to the major T4 binding plasma proteins. […] The results were analyzed by calculation of the TTR/total (TTR+ALB+TBG) ratio for each sample collected at different time points. The displacement of T4 from TTR is calculated and plotted as the difference between the average of ratios of TTR/total protein for each control sample and the average of the ratios of TTR/total protein. […]
(§3) Five (5) μL of human plasma plus 0.25-0.5 μL of [125I]T4 (specific radioactivity 1250 μCi/m; concentration 320 μCi/mL; Perkin Elmer, Boston, Mass., U.S.A.) plus 5 μL of PBS with glycerol 50% are incubated for 1 hour at room temperature (RT) and the samples are subjected to native PAGE. After electrophoresis, the gels are dried, subjected to phosphor imaging (Typhoon 8600; Molecular Diagnostics, Amersham Biosciences), and analyzed using the ImageQuant program version 5.1. […]

[3] = target: T3, thyroxine-binding globulin (TBG) (Homo sapiens, UniProt P05543); assay: Thyroxine (T4) binding competition by gel electrophoresis in plasma, TBG band; conditions: [125I]T4, in presence of compound
T3 construct: from tissue; host or cells: human plasma
T3 sequence (P05543 21-415): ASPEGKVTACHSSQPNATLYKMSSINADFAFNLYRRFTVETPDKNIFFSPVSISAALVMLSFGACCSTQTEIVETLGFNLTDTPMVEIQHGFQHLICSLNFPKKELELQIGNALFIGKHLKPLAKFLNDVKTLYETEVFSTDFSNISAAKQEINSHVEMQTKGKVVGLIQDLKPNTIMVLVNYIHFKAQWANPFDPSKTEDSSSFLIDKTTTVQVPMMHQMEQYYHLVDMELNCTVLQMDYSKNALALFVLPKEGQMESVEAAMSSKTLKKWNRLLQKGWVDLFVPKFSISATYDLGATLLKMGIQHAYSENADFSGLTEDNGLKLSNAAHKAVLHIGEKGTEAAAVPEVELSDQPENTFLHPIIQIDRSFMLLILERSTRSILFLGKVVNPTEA
Method: as §1, §2, §3

[4] = test system: FAP patients; conditions: 18-month phase-III clinical trial; cited from earlier work

T2 sequence (P02768 25-609): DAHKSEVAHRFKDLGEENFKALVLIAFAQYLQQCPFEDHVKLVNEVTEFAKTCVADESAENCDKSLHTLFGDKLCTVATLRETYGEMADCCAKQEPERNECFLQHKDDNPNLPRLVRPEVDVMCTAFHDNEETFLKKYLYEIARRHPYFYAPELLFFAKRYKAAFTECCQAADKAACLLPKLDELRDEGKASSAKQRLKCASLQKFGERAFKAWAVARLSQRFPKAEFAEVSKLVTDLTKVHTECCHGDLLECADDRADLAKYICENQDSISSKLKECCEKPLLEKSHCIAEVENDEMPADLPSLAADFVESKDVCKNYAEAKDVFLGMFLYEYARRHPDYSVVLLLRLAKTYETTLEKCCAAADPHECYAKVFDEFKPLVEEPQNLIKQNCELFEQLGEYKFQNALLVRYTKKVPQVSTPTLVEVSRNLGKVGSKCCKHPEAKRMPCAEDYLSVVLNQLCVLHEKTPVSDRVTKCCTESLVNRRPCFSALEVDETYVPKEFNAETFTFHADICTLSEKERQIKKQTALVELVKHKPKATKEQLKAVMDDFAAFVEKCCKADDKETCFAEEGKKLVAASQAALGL

SMILES | tetramer/monomer ratio (IEF densitometry) [1] | T4 bound to ALB [2] [%] | T4 bound to TBG [3] [%] | FAP patients with improvement of symptoms [4]
COc1cc(/C=C2\SC(=S)N(CC(=O)O)C2=O)cc(Cl)c1O [AT50-A00 (Z), (Z)-3-hydroxycarbonylmethyl-5-(3′-chloro-4′-hydroxy-5′-methoxyphenylmethylidene)-2-thioxothiazolidin-4-one] | 0.838 | 31.5 | 54.3 | –
O=C(O)c1ccc2nc(-c3cc(Cl)cc(Cl)c3)oc2c1 [Tafamidis, reference compound] | – | 32.0 | 53.6 | approximately 60%

— patent US11584727B2, “2-thioxothiazolidin-4-one derivatives active as transthyretin ligands and uses thereof” (BSIM Therapeutics, S.A., priority 2014, dated 2023)
